Legend:
HIV LTR luciferase = assay: Nuclear microinjection of synthetic Tat or AcTat with HIV LTR luciferase reporter into HeLa cells; format: cell-based; details: for basal HIV promoter activity / transcriptional activity of AcTat (transactivation of the HIV promoter): TSA 400 nM or nicotinamide 5 mM, four hours (FIG. 6C)
Protocol: Subconfluent MEFs (70%) were grown on Cellocate coverslips (Eppendorf, Westbury, N.Y.), and nuclear microinjections were performed at room temperature with an automated injection system (Eppendorf Micromanipulator 5171 together with Eppendorf Transjector 5246). Samples were prepared as a 20 μl injection mix containing the HIV LTR luciferase reporter or 5×UAS luciferase (each 100 ng/μl), RSV-Tat (10 ng/μl) or Gal4-VP16 (50 ng/μl), CMV-CyclinT1 (100 ng/μl), CMV-SIRT1 (100 or 300 ng/μl) together with CMV-GFP (50 ng/μl) in sterile water. Six hours after microinjection, cells were examined under a Nikon Eclipse TE300 inverted fluorescent microscope to determine the number of GFP-positive cells, washed in cold phosphate buffer, and stored at −70° C. for luciferase assays (Promega). In HeLa cells, synthetic Tat or AcTat proteins (each 30 or 100 ng/μl) were co-injected with the wildtype or mutant HIV LTR luciferase reporters (each 100 ng/μl) together with CMV-GFP (50 ng/μl) and harvested four hours after injection. Cells were treated immediately after injection with 5,6-dichlorobenzimidazole riboside (DRB; 10 or 50 μM; Sigma), TSA (400 nM), or nicotinamide (5 mM). Microinjections in siRNA-treated cells were performed 48 hours after siRNA transfection.

p53 = p53 acetylation in cells; format: cell-based; details: 1 μM
RSV LTR = assay: RSV luciferase control in transfected HeLa cells; format: cell-based; details: 1 μM (FIG. 7C right)
Protocol: (§1) In co-transfection experiments, human CMV-SIRT1 or CMV-SIRT1H363Y (600 ng) was co-transfected into HeLa cells plated in six-well plates with the HIV LTR luciferase reporter (200 ng) or the LTRΔNF-kB-luciferase reporter (200 ng) and increasing amounts of RSV-Tat (0 ng, 2 ng, 20 ng, and 200 ng) using the lipofectamine reagents (Invitrogen). In the control experiment, RSV-Tat was replaced by RSV luciferase (200 ng), and the HIV LTR luciferase construct was replaced by the HIV LTR CAT reporter. […] The RSV-luciferase construct was used as described above. […] Cells were harvested 8 hr later and processed for luciferase assays.

[1] = test system: Tat-dependent HIV transcription; assay: Tat transactivation of HIV LTR luciferase reporter in transfected HeLa cells treated with HR73; format: cell-based; details: at ~1 μM, 8 hours, dose-dependent (FIG. 7C left)
Protocol: as §1

pHR'-EF-1α/GFP = assay: HIV-based lentiviral vector expressing GFP from EF-1α promoter in Jurkat T cells (control); format: cell-based; details: 1 μM, 36 hours (FIG. 7D right)
Protocol: (§2) The HIV molecular clone (HIV-R7/E^−/GFP) containing the GFP open reading frame in place of the nef gene and a frameshift mutation in the env gene as well as the method to generate pseudotyped viral particles with VSV-G was previously described. Jordan et al. (2003) Embo J 22: 1868-1877. The number of infective particles per ml was established by infecting 3×10^5 Jurkat cells with different amounts of viral suspension. The titer of the viral stock was measured by flow cytometry analysis of GFP expression 48 hours after infection. The pHR′-EF-1α/GFP construct is a minimal nonreplicative HIV-1 genome containing a heterologous promoter (EF-1α) driving GFP expression. Naldini et al. (1996) Science 272: 263-267. […]. Zufferey et al. (1997) Nat Biotechnol 15: 871-875. All vectors for the production of HIV-based lentiviral vectors were provided by D. Trono, University of Geneva, Switzerland. Jurkat T cells were incubated overnight with HIV-R7/E^−/GFP or pHR′-EF-1α/GFP viral particles at a theoretical multiplicity of infection (m.o.i.) of 0.5 in 24-well plates. […] Viral infection was monitored 36 hours later by flow cytometry analysis using a Calibur FACScan (Becton Dickinson).

[2] = test system: HIV-R7/E-/GFP (HIVNL4-3 with GFP in place of nef); assay: Single-cycle HIV infection of Jurkat T cells, GFP expression by flow cytometry; format: cell-based; details: 1 μM, 36 hours (FIG. 7D left)
Protocol: as §2

SIRT1 = molecular target: T1, SIRT1 (Homo sapiens, UniProt Q96EB6); assay: In vitro Tat deacetylation assay with immunoprecipitated SIRT1; format: biochemical; details: AcTat, NAD+ 1 mM; nicotinamide 5 mM, TSA 400 nM; western blot (FIG. 2B)
T1 construct: made in house; host or cells: HEK 293 cells (transient transfection, anti-FLAG M2 agarose immunoprecipitation)
T1 sequence (Q96EB6 1-747): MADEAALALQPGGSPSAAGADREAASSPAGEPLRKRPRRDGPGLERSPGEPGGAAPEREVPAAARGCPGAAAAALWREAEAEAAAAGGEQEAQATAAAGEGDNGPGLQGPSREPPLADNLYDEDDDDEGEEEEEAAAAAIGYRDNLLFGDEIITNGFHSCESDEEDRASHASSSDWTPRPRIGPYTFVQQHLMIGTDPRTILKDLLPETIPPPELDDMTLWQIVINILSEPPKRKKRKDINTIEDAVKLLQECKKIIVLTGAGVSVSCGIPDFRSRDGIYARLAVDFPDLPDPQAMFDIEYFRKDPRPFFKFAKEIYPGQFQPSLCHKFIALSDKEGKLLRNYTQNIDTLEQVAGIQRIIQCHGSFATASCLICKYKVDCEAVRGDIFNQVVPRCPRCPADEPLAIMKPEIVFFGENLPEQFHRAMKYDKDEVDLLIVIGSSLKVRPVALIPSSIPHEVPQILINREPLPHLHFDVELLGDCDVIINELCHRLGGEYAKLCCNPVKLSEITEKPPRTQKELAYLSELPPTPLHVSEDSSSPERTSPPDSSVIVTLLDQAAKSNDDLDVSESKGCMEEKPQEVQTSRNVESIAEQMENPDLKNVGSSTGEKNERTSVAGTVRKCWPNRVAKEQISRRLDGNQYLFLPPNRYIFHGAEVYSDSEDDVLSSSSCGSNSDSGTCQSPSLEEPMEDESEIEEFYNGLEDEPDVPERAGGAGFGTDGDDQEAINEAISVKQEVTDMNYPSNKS
Protocol: Human SIRT1-7 FLAG-tagged plasmids were transfected in 293 cells with lipofectamine reagent (Invitrogen). Cells were lysed 24 hours after transfection with lysis buffer (50 mM Tris-Hcl, pH 7.5, 0.5 mM EDTA, 0.5% NP40, 150 mM NaCl) in the presence of protease inhibitors (Roche Molecular Biochemicals, Indianapolis, Ind.). Equal amounts of total proteins were immunoprecipitated with α-FLAG (anti-FLAG antibody) coupled to M2 agarose beads (Sigma, St Louis, Mo.), for 2 hours at 4° C. Immunoprecipitated material was washed twice with immunoprecipitation (IP) buffer and one time with SIRT deacetylation buffer (50 mM Tris-HCl pH 9, 4 mM MgCl2, 0.2 mM DTT). The beads were resuspended in 100 μl SIRT deacetylation buffer containing 1 μg synthetic Tat (72 amino acids) carrying an N-terminal biotin label and an acetyl group at position 50. Kaehlcke et al. (2003), supra. Reactions containing TSA (400 nM, WACO Bioproducts, Richmond, Va.) or nicotinamide (5 mM, Sigma) were preincubated for 10 min at room temperature. […] Reactions were stopped by the addition of SDS loading buffer, boiled, and after brief centrifugation, analyzed by western blotting with rabbit α-AcTat antibodies (Kaehlcke et al. (2003), supra) or horseradish peroxidase-conjugated streptavidin (Jackson Immunoresearch Laboratories, West Grove, Pa.). SIRT1-7 proteins were detected with polyclonal α-FLAG antibodies (Sigma).

SMILES: OC[C@H]1O[C@@H](n2cnc3cc(Cl)c(Cl)cc32)[C@H](O)[C@@H]1O [DRB, 5,6-dichlorobenzimidazole riboside]
- transactivation by Tat and AcTat (HIV LTR luciferase; Tat or AcTat 30 ng/μl, DRB 10 or 50 μM, four hours (FIG. 6B)): inhibited in a dose-dependent manner

SMILES: O=C1Oc2ccc3cc(Br)ccc3c2CC1c1ccccc1 (stereo not drawn) [HR73]
- acetylation of p53 (p53): induced hyperacetylation
- activity of the RSV LTR (RSV LTR): did not suppress
- suppression of Tat-dependent HIV transcription [1]: 3 fold
- GFP expression from the EF-1α promoter (pHR'-EF-1α/GFP): not affected
- reduction of HIV gene expression as measured by GFP expression [2]: 5 fold

SMILES: CC(/C=C/C(=O)NO)=C\[C@@H](C)C(=O)c1ccc(N(C)C)cc1 [TSA]
- basal HIV promoter activity (HIV LTR luciferase): enhanced
- transcriptional activity of AcTat (transactivation of the HIV promoter) (HIV LTR luciferase): enhanced
- effect on SIRT1-mediated deacetylation of Tat (SIRT1): had no effect

SMILES: NC(=O)c1cccnc1 [nicotinamide]
- basal HIV promoter activity (HIV LTR luciferase): stimulating
- transcriptional activity of AcTat (transactivation of the HIV promoter) (HIV LTR luciferase): blocked
- effect on SIRT1-mediated deacetylation of Tat (SIRT1): completely inhibited
